Data on ten compounds can be found in patent US6911450B1, “Pyrimidine acyclonucleoside derivatives, preparation method and use thereof” (Universite de Geneve, priority 2001, dated 2005).

Where two headings read alike, the source gives them in different places. Bounds are passed on as bounds.

Data set [1] is described as follows: Cytotoxicity assay revealed by MTT after seven days of culture. Particulars: human, PBMC, 50% diminution of growth and viability. The class given is cell-based, human. The protocol: (§1) Concurrently to the screening, and in the same conditions, cytotoxicity assays of the test compounds were carried out.
(§2) This assay has allowed to determine the concentration of the product causing a diminution of 50% of the growth and the viability of PBMC (CC50).
(§3) The PBMC were isolated as described in Ulmer and col., Immunobiology, 166(3), 238-250 (1984) from a healthy donor by a Ficoll gradient (Nicomed Pharma AS).
(§4) The PBMC were activated with phytohemagglutinine for three days and then cultivated in a 96-well plate, in a base medium (RPMI) supplemented with recombinant human Interleukin-2.
(§5) Throughout the culture, the cells were maintained at 37° C., in an atmosphere saturated in humidity, and under 5% CO2.

For data set [2], the system named is HIV-1 lai strain. Kind of data set: Anti-HIV test on PBMC, viral replication measured by Reverse Transcriptase (RT) activity in culture supernatants. The class given is cell-based. Particulars: for IC50 / IC90: Human immunodeficiency virus 1, 168 h, against HIV-Lai on PBMC, 7 days, RT activity assay; for activity relative to that of its congeners or of its rivals: from Table 1. On the procedure: The object of the screening is to evaluate the antiretroviral activity of the compounds of the present invention and of the Comparative Compounds on the HIV-1 lai strain cultivated on peripheral blood mononucleated cells (PBMC). For this purpose, the test compounds were incubated for seven days (duration of the anti-HIV test) with the PBMC in exponential phase of growth. The ability of the compounds to inhibit the viral replication was then measured in the culture supernatants either by an assay of the “Reverse Transcriptase” (RT) activity with the kit RetroSys TR (INNOVAGEN) or by an assay of the protein P24 with the kit Innotest HIV Antigen mAb Screening (IMMUNOGENETICS). The concentrations of the test compound causing 50 and 90% inhibition of the viral replication were determined. It concerns inhibition concentrations IC50 and IC90, respectively. The PBMC were isolated as described in Ulmer and col., Immunobiology, 166(3), 238-250 (1984) from a healthy donor by a Ficoll gradient (Nicomed Pharma AS). The PBMC were activated with phytohemagglutinine for three days and then cultivated in a 96-well plate, in a base medium (RPMI) supplemented with recombinant human Interleukin-2. Throughout the culture, the cells were maintained at 37° C., in an atmosphere saturated in humidity, and under 5% CO2. The PBMC were pre-treated for one hour in the presence of the test compounds at various concentrations, and then infected with 100 TCID50 of HIV-1-Lai [S. Wain-Hobson and col., Science 17, 252 (5008): 961-965 (1991)]. Three days after the infection with HIV-1, the half of the culture medium was changed and, at the day 7, the supernatants were taken and frozen at −20° C. Then, the viral replication was measured: a) by assaying the “Reverse Transcriptase” (RT) activity in the culture supernatants by means of the kit RetroSys (Innovagen). The RT contained in the supernatant synthesizes, in the presence of bromodeoxyuridine triphosphate (BrdUTP), a complementary strand DNA to a matrix immobilized on the bottom of the wells of a 96-well plate. The incorporation of BrdU is quantified by the fixation of an antibody anti-BrdU conjugated to the alkaline phosphatase. The activity of the attached alkaline phosphatase, measured by colorimetry, is proportional to the RT activity in the culture supernatant. The results described below are the results of at least two experiments which are distinct and carried out in triplicate.

The test system of data set [3] is Bone marrow cells of Balb/c mice. Kind of data set: Toxicity test on bone marrow cells (proliferation by Trypan blue count, differentiation by flow cytometry). The class given is cell-based. Particulars: for cell proliferation / proportions of lymphocytes B, myelocytes, neutrophiles and macrophages induced by the cytokines: mouse bone marrow cells, 5 days; for cell proliferation: 1×10^−12 to 1×10^−5 M, versus absence of compound; for proportions of lymphocytes B, myelocytes, neutrophiles and macrophages induced by the cytokines: whatever the concentration, presence versus absence of compound. On the procedure: Toxicity tests of Compounds No. 3 and 5 of the present invention were further carried out on bone marrow cells according to the following working method. Bone marrow cells of Balb/c mice were cultivated at the rate of 5×10^5 cells/ml in cultures of 1 ml in RPMI 1640 medium supplemented with 1 mM glutamine, 10% fetal calf serum, penicillin and streptomycin (GIBCO, USA). The cells were stimulated by addition of 1 ng/ml of Stem cell factor (c-kit ligand), IL3 and GM-CSF (Pharmingen, USA) in the presence of increasing concentrations of the Compounds 3 and 5 of the present invention ranging from 1×10^−12 to 1×10^−5 M. After 5 days of culture at 37° C., 5% CO2, the cells were recovered. The proliferation was evaluated by numeration of living cells in the presence of Trypan blue. The differentiation of the cells was evaluated by Flow Cytometry (Facs-Calibur, BECTON DICKINSON, USA) by double labeling of the cells with antibodies anti-CD38 conjugated with phycoerythrine (PE), anti-Gr1 conjugated with fluoresceine 5 (Fl), anti-Gr1-PE and anti-CD11b-Fl (Pharmingen, USA).

The test system of data set [4] is HIV-1. Particulars: cited from earlier work; for activity against HIV-1: prior art.
A short description of data set [5]: Combination test with AZT, ddI and ddC. The class given is cell-based.
Data set [6] has as its system PBMC. Kind of data set: Cytotoxicity assay revealed by MTT after seven days of culture. The class given is cell-based, human. Particulars: 7 days, 50% diminution of growth and viability. The protocol:
as §1, §2, §3, §4, §5

In turn, `CC(=O)ON(CCCOCn1c(Cc2cc(C)cc(C)c2)c(C(C)C)c(=O)[nH]c1=O)C(N)=O` [Compound 4, 1-(3-N^1-acetoxyureidopropyloxymethyl)-6-(3,5-dimethylbenzyl)-5-isopropyluracile] came in with a melting point of 77 to 79 °C. Moreover, the half-maximal cytotoxic concentration (CC50) at 7 days in data set [1] is 30000 nM. For the same compound, in data set [2], the IC50 stood at 0.03 nM and the 90% effect concentration (IC90) came to 0.6 nM.

In turn, `Cc1cc(C)cc(Cc2c(C(C)C)c(=O)[nH]c(=O)n2COCCCN(O)C(N)=O)c1` [Compound 3, 1-(3-N^1-hydroxyureidopropyloxymethyl)-6-(3,5-dimethylbenzyl)-5-isopropyluracil] came in with a melting point of 88 to 90 °C. In addition, the “toxic effects on bone marrow cells of mice” value in data set [3] (even at concentrations 1×10^6 time higher than those inhibiting HIV replication in human lymphocytes in vitro) was “no significant toxic effects”. Also, in data set [3], the cell proliferation result was “identical to the one observed in the absence”; the “proportions of lymphocytes B, myelocytes, neutrophiles and macrophages induced by the cytokines” value is “identical in the presence or in the absence”. Further, the midpoint of cytotoxicity in data set [1], the CC50 at 7 days, lay at 220000 nM. Besides, in data set [2], the IC90 is 0.0039 nM and the “activity relative to that of its congeners or of its rivals” value was 100,000 times.

The compound `CCc1c(Cc2ccccc2)n(COCCN(O)C(N)=O)c(=O)[nH]c1=O` [Comparative 3, 1-(2-N^1-hydroxyureidoethyloxymethyl)-6-benzyl-5-ethyluracile] displayed a melting point of 276 to 277 °C. For the same compound, the 50% cytotoxic concentration (CC50) at 7 days in data set [1] was > 250000 nM. Also, the IC50 in data set [4] (against HIV-1, prior art) was 70 nM. For the same compound, the “activity against HIV-1” value in data set [4] was “only very moderately active”. For the same compound, in data set [2], it took 70 nM to reach half-maximal inhibition (IC50).

`Cc1cn(C(C)OCCN(O)C(N)=O)c(=O)[nH]c1=O` (stereo not shown) [Formula B]: the “activity against HIV-1” value in data set [4] is “totally inactive”.

`CCOCn1c(Cc2ccccc2)c(C(C)C)c(=O)[nH]c1=O` [Comparative 4, 1-ethyloxymethyl-6-benzyl-5-isopropyluracil, reference compound]: the CC50 at 7 days in data set [1] is > 30000 nM. The compound also gave a concentration for half-maximal inhibition (IC50) in data set [2] of 2 nM.

`CCc1c(Cc2cc(C)cc(C)c2)n(COCCCCN(O)C(N)=O)c(=O)[nH]c1=O` [Comparative 2, 1-(4-N^1-hydroxyureidobutyloxymethyl)-6-(3,5-dimethylbenzyl)-5-ethyluracil] showed a melting point of 148 to 150 °C. The CC50 at 7 days in data set [1] was > 50000 nM. In data set [2], this compound came in with a half-inhibitory concentration (IC50) of 2.3 nM and a 90% effect concentration (IC90) of 30 nM.

For the compound `CCc1c(Cc2cc(C)cc(C)c2)n(COCCN(O)C(N)=O)c(=O)[nH]c1=O` [Comparative 1, 1-(2-N^1-hydroxyureidoethyloxymethyl)-6-(3,5-dimethylbenzyl)-5-ethyluracil], the melting point lay in the range of 147 to 148 °C. In addition, the 50% cytotoxic concentration (CC50) at 7 days in data set [1] is > 500000 nM. In data set [2], this compound returned a 50% inhibitory concentration (IC50) of 0.92 nM and a concentration for an effect of 90% (IC90) of 15 nM.

In turn, `CCc1c(Cc2cc(C)cc(C)c2)n(COCCCN(O)C(N)=O)c(=O)[nH]c1=O` [Compound 2, 1-(3-N1-hydroxyureidopropyloxymethyl)-6-(3,5-dimethylbenzyl)-5-ethyl-uracil] came in with a melting point of 165 to 167 °C. In data set [5], the “synergy with AZT, ddI and ddC” value is recorded as “exhibited a synergy”. Besides, the CC50 at 7 days in data set [1] was > 300000 nM. In data set [2], this compound returned a half-inhibitory concentration (IC50) of 0.24 nM and a concentration for an effect of 90% (IC90) of 1.7 nM.

For `Cc1cc(C)cc(Cc2c(C(C)C)c(=O)[nH]c(=O)n2COCCCN(OC(=O)C(C)(C)C)C(N)=O)c1` [Compound 5, 1-(3-N^1-pivaloyloxyureidopropyloxymethyl)-6-(3,5-dimethylbenzyl)-5-isopropyluracil], in data set [3], the “toxic effects on bone marrow cells of mice” value was “no significant toxic effects”; the cell proliferation entry is recorded as “identical to the one observed in the absence”; the “proportions of lymphocytes B, myelocytes, neutrophiles and macrophages induced by the cytokines” value is “identical in the presence or in the absence”. The same compound displayed a CC50 in data set [6] of 65000 nM. In data set [2], the “activity relative to that of its congeners or of its rivals” value is on record as 1,000,000 times.

Consider `CCc1c(Cc2cc(C)cc(C)c2)n(COCCCNC(=O)NO)c(=O)[nH]c1=O` [Compound 1, 1-(3-N^3-hydroxyureidopropyloxymethyl)-6-(3,5-dimethylbenzyl)-5-ethyl-uracil], for which the midpoint of cytotoxicity in data set [1], the CC50 at 7 days, lay at 260000 nM. In data set [2], this compound had an IC50 of 2.3 nM and an IC90 of 9 nM.

For orientation: CC50 means the concentration at which the toxic effect on the cells reaches its halfway point. A lower CC50 goes with greater toxicity to the cells. A word on the melting point: it is the temperature, or range, at which the solid turns liquid. Usually IC50 stands for the midpoint of a concentration-inhibition curve. What is called IC90 is the concentration needed for an effect of 90%. A high value points to a need for much substance.
